Consider seven molecules from PubChem BioAssay (NCI).

Some test systems named below: A549 NSCLC; OVCAR-3 ovarian; OVCAR-5 ovarian; SR leukemia; BT-549 breast; SNB-19 CNS; SNB-75 CNS; MCF7 breast; HOP-92 NSCLC; PC-3 prostate.
What all share (experiment): growth of human tumour cells (NCI), 48 h

The structures appear in SMILES notation. Values joined by “and” are separate entries in the source; they are usually repeats but may differ in a detail not shown here. Equal entries are not always repeated.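 Grown in 96-well plates, cells were treated for 48 hours with each compound at five concentrations. Insufficient inhibition: endpoint recorded as highest concentration tested. GI50 is the concentration that inhibits growth by half. The concentration for full growth arrest is given as TGI.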 Bounds are passed on as bounds.

On to `COc1cc2c(c(OC)c1OC)-c1ccc(O)c(=O)cc1[C@@H](NC(C)=O)CC2`, for which the GI50 with A549 NSCLC was 10.1 µM; in the test with OVCAR-3 ovarian it was 4.35 µM; with OVCAR-5 ovarian, 22.7 µM; in the test with SR leukemia, 4.74 µM; in the test on BT-549 breast, 24 µM; in the test with SNB-19 CNS, 7.14 µM. Besides, the GI50 with SNB-75 CNS was 16.3 µM; in the test on MCF7 breast, 4.37 µM; in the test on HOP-92 NSCLC it was 9.92 µM; with PC-3 prostate it was 15.1 µM. For the same molecule, the TGI in the test with A549 NSCLC is 89.3 µM and > 100 µM; in the test on OVCAR-3 ovarian, over 100 µM; with OVCAR-5 ovarian it was over 100 µM; with SR leukemia, 97.9 µM and 18.1 µM; in the test on BT-549 breast, > 100 µM and 39.4 µM; in the test on SNB-19 CNS, over 100 µM. For the same molecule, the TGI in the test with SNB-75 CNS was over 100 µM; in the test on MCF7 breast, > 100 µM and 63.5 µM; in the test on HOP-92 NSCLC, > 100 µM and 58.3 µM; in the test with PC-3 prostate it was over 100 µM.

Turning to `COc1ccc(/C=C\c2cc(OC)c(OC)c(OC)c2)c(NS(=O)(=O)c2ccc(Cl)cc2)c1O`, the GI50 with A549 NSCLC is 0.27 µM; with OVCAR-3 ovarian, 0.0602 µM; in the test with OVCAR-5 ovarian, 2.86 µM; with SR leukemia, 0.0306 µM; with BT-549 breast, 0.353 µM; in the test on SNB-19 CNS it was 0.807 µM. Also, the GI50 in the test on SNB-75 CNS was 0.0331 µM; with MCF7 breast, 0.0384 µM; in the test on HOP-92 NSCLC it was 2.36 µM; in the test with PC-3 prostate it was 0.153 µM. The TGI in the test with A549 NSCLC was over 100 µM; in the test with OVCAR-3 ovarian, 10.7 µM; in the test on OVCAR-5 ovarian it was 33.8 µM; in the test with SR leukemia, 10.4 µM; in the test on BT-549 breast, 34.5 µM; in the test on SNB-19 CNS it was over 100 µM. The TGI was 17.4 µM with SNB-75 CNS, over 100 µM in the test with MCF7 breast, 23.6 µM in the test with HOP-92 NSCLC and over 100 µM in the test with PC-3 prostate.

Turning to `COC(=O)[C@H]1[C@H]2C[C@@H]3c4[nH]c5cc(OC)ccc5c4CCN3C[C@H]2C[C@@H](OC(=O)/C=C/c2cc(OC)c(OC)c(OC)c2)[C@@H]1OC`, the GI50 in the test with A549 NSCLC is 8.89 µM; in the test with OVCAR-3 ovarian, 2.62 µM; in the test with OVCAR-5 ovarian, 19.3 µM; in the test on SR leukemia, 2.48 µM; in the test on BT-549 breast, 11.6 µM; in the test with SNB-19 CNS it was 6.46 µM. Also, the GI50 in the test with SNB-75 CNS was 5.19 µM; in the test with MCF7 breast, 4.75 µM; in the test with HOP-92 NSCLC, 2.85 µM; in the test on PC-3 prostate, 6.91 µM. The TGI with A549 NSCLC is over 100 µM; in the test with OVCAR-3 ovarian, 6.2 µM; with OVCAR-5 ovarian, 56.7 µM; in the test with SR leukemia it was 6.63 µM; in the test on BT-549 breast it was 24.6 µM; in the test on SNB-19 CNS, over 100 µM. Moreover, the TGI in the test on SNB-75 CNS was 20.2 µM; in the test on MCF7 breast, 23 µM; in the test on HOP-92 NSCLC it was 17.4 µM; in the test on PC-3 prostate it was over 100 µM.

For `CN(C)CCCc1c2ccccc2nc2ccc(Cl)cc12`, the TGI was found to be 28.3 µM with A549 NSCLC; 57.7 µM in the test with OVCAR-3 ovarian; 33.3 µM with OVCAR-5 ovarian; 44.1 µM in the test with SR leukemia; 38.2 µM in the test on BT-549 breast; 33.5 µM in the test on SNB-19 CNS. Further, the TGI in the test on SNB-75 CNS was determined as 31.8 µM; with MCF7 breast it was 23.7 µM; in the test with HOP-92 NSCLC it was 23.1 µM; in the test with PC-3 prostate it was 37 µM.

As for `CCOC(=O)Nc1nc2cc(OCC)ccc2s1`, the GI50 in the test with A549 NSCLC is 9.83 µM; with OVCAR-3 ovarian, 35 µM; in the test with OVCAR-5 ovarian, over 100 µM; in the test with SR leukemia, 1.52 µM; in the test on BT-549 breast it was over 100 µM; with SNB-19 CNS, over 100 µM. Besides, the GI50 with SNB-75 CNS is 53.8 µM; in the test with MCF7 breast, 5.01 µM; with HOP-92 NSCLC it was over 100 µM; with PC-3 prostate it was over 100 µM. Also, the TGI in the test with A549 NSCLC, in the test on OVCAR-3 ovarian, in the test with OVCAR-5 ovarian, in the test on SR leukemia, with BT-549 breast and in the test with SNB-19 CNS was over 100 µM each time. Besides, the TGI in the test on SNB-75 CNS, with MCF7 breast, in the test with HOP-92 NSCLC and with PC-3 prostate was over 100 µM in each case.

Turning to `Cn1cc(C2=C(c3cn(C)c4cc(N)ccc34)C(=O)NC2=O)c2ccccc21`, the GI50 in the test with A549 NSCLC is 3.09 µM; with OVCAR-3 ovarian it was 0.721 µM; in the test with OVCAR-5 ovarian it was 8.13 µM; with SR leukemia, 0.364 µM; with BT-549 breast, 4.32 µM; with SNB-19 CNS, 5.45 µM. In addition, the GI50 in the test on SNB-75 CNS is 0.252 µM; with MCF7 breast, 0.696 µM; with HOP-92 NSCLC it was 5.86 µM; in the test with PC-3 prostate, 2.92 µM. In addition, the TGI with A549 NSCLC is over 25 µM; in the test with OVCAR-3 ovarian it was over 12.2 µM; with OVCAR-5 ovarian it was over 21.9 µM; in the test on SR leukemia it was 4.02 µM; with BT-549 breast, 14.6 µM; with SNB-19 CNS, 24.3 µM. Besides, the TGI was 2.09 µM with SNB-75 CNS, over 16.8 µM in the test on MCF7 breast, over 18.9 µM with HOP-92 NSCLC and over 20.6 µM in the test on PC-3 prostate.

For `Nc1nc(N)nc(CC(=O)O)n1`, the TGI with A549 NSCLC, in the test with OVCAR-3 ovarian, in the test on OVCAR-5 ovarian, with SR leukemia, in the test with BT-549 breast and with SNB-19 CNS was over 100 µM each time. In addition, the TGI with SNB-75 CNS, in the test with MCF7 breast, in the test with HOP-92 NSCLC and with PC-3 prostate was over 100 µM in each case.
